Results as given in paper PMC8286619 (BMC Pharmacology & Toxicology, 2021).

Target: T1, xanthine oxidase (XO) (Bos taurus, UniProt P80457)
T1 construct: gene XDH
Test: biolayer interferometry, biotinylated XO on SA sensor (also activates the purified enzyme, EC50 […])
Format: binding

T1 sequence (P80457 2-1332): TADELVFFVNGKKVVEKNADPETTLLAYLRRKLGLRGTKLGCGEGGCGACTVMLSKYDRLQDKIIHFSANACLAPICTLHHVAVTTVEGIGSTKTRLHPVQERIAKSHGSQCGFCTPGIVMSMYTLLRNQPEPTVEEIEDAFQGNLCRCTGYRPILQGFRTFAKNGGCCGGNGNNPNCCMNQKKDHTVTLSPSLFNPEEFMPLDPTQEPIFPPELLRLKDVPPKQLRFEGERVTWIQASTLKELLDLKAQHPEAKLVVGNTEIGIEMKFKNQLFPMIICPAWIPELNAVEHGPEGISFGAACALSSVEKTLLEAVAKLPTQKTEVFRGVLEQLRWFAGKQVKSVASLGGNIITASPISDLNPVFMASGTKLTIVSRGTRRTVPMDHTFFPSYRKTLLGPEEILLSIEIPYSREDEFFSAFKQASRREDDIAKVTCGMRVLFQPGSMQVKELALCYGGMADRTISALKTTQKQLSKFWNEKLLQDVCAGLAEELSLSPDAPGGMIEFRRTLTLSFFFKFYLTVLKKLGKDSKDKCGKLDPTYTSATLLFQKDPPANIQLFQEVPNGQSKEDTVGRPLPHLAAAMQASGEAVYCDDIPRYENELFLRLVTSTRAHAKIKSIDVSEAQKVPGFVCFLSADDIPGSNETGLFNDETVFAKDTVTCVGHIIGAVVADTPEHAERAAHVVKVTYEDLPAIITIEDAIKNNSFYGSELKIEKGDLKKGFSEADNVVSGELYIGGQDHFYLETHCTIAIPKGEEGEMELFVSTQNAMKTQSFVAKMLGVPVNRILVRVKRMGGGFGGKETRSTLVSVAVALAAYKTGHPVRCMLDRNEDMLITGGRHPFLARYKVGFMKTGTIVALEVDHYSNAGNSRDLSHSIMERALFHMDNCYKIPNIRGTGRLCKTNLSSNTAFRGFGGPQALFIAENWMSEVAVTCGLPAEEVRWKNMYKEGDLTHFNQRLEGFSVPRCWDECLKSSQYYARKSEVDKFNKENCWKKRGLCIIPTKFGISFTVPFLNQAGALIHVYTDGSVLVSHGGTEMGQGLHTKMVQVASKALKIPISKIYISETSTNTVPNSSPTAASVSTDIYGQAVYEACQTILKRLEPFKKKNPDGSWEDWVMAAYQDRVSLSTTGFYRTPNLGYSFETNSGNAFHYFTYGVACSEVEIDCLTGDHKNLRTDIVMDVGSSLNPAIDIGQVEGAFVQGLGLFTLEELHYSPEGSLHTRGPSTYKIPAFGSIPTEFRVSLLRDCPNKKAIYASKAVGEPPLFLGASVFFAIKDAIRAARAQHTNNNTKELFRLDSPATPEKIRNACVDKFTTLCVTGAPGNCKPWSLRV

CC1=CC(=O)c2c(O)cccc2C1=O [PLB, Plumbagin] gave a Kd of 499 nM.
